{
  "source": "paper PMC7763995",
  "about": "(Molecules, 2020)",
  "origin": "cited, not measured here",
  "tested_on": "AChE-induced Aβ aggregation",
  "set-up": "method as in PMID 12527333",
  "conditions": "at 100 μM; cited from earlier work",
  "data": [
    {"smiles": "CC[N+](C)(CC)CCC[n+]1c(-c2ccccc2)c2cc(N)ccc2c2ccc(N)cc21", "note": "[Propidium, propidium]", "values": [
      {"measurement": "Decrease in AChE-induced Aβ aggregation", "value": 82, "unit": "%"}
    ]}
  ]
}
